US7091351B2, “Vanadium compounds for treating cancer” (Parker Hughes Institute, priority 1998, dated 2006)

Experiments:
Format in all cases: cell-based, human
[1] = tested on: Tera-2 testicular cancer cells; experiment: MTT cytotoxicity assay of vanadocenes, TERA-2 cells; settings: 24 h, 1.9-250 μM
Method: (§1) Human testicular cancer cell lines, Tera-2 (embryonal carcinoma) and Ntera-2 (pluripotent embryonal carcinoma) were obtained from the American Type Culture Collection (ATCC) (Rockeville, Md.) and propagated in T-25, T-75, or T-150 cm^2 tissue culture flasks (Corning Corp., Corning, N.Y.) in McCoy's 5A medium and Dulbecco's modified Eagle's medium respectively. Both media were supplemented with 10% fetal calf serum (FCS), 4 mM glutamine, 100 U/ml penicillin G, and […] streptomycin sulfate. All tissue culture reagents were obtained from Life Technologies Inc. (GIBCO-BRL), Gaithersburg, Md. Cell lines were cultivated for a minimum of two passages after thawing prior to experimentation. Other cell lines that were used in this study were the human B-lineage acute lymphoblastic leukemia (ALL) cell line NALM-6. Uckun, F. M., Evans, W. E., Forsyth, C. J., Waddick, K. G., Tuel-Ahlgren, L., Chelstrom, L. M., Burkhardt, A., Bolen, J., Myers, D. E. Biotherapy of B-cell precursor leukemia by targeting genistein to CD19-associated tyrosine kinase. Science (Washington DC) 267:886–91, 1995; T-lineage ALL cell line MOLT-3, Waurzyniak, B., Shneider, E. A., Tumer, N., Yanishevski, Y., Gunther, R., Chelstrom, L., Wendorf, H., Myers, D. E., Irvin, J. D., Messinger, Y., Ek, O., Zeren, T., Chandan-Langlie, M., Evans, W. E., Uckun, F. M. In vivo toxicity, pharmacokinetics, and antileukemic activity of TXU (anti-CD7)-pokeweed antiviral protein immunotoxin. Clinical Cancer Research 3:881–890, 1997; AML cell line HL-60, Perentesis, J. P., Waddick, K. G., Bendel, A. E., Shao, Y., Warman, B. E., Chandan-Langlie, M., and Uckun, F. M. Induction of apoptosis in multi-drug resistant andradiation-resistant acute myeloid leukemia cells by a recombinant fusion toxin directed against the granulocyte macrophage colony stimulating factor receptor. Clin. Cancer Res. 3:347–355, 1997; breast cancer cell lines MDA-MB-231 and BT-20, Uckun, F. M., Narla, R. K., Jun, X., Zeren, T., Venkatachalam, T., Waddick, K. G., Rostostev, A., Myers, D. E. Cytotoxic activity of EGF-genstein against breast cancer cells. Clin. Cancer Res. 4:901–912, 1998; glioblastoma cell lines U87 and U373, Narla, R. K., Liu, X., Myers, D. E., and Uckun, F. M. 4-(3′-Bromo-4′hydroxylphenyl)-amino-6,7-dimethoxyquinazoline (WHI-P154): A novel quinazoline derivative with potent cytotoxic activity against human glioblastoma cells. Clin. Cancer Res. 4:1405–1414, 1998.
(§2) MTT (3-[4,5-dimethyl thiazol-2-yl]-2,5-diphenyltetrazolium bromide)-based colorimetric assays were used for evaluation of the cytotoxicity of vanadocene compounds. Mosmann, T. Rapid colorimetric assay for cellular growth and survival: application to proliferation and cytotoxicity assays. J. Immunol. Methods, 65: 55–63, 1983. Briefly, cells were harvested with 0.125% (w/v) trypsin-0.02% EDTA (GIBCO-BRL) from exponential-phase maintenance cultures and centrifuged (300 g×5 min). After suspension and counting, cells were dispensed within triplicate 96-well tissue culture plates in 100 μl volumes. After 24 h incubation, the culture medium was discarded and replaced with 100 μl of fresh medium containing serial two-fold dilutions of drugs in medium to yield 1.9 μM to 250 μM. All compounds were reconstituted in DMSO to a concentration of 100 mM, and the stock solution was made fresh for each experiment. Control wells consisted of medium containing 0.25% of DMSO alone were used for solvent control. Culture plates were then incubated for 24 h before adding 10 μl of MTT solution (5 mg/ml in PBS) to each well. Wells containing only medium and MTT were used as controls for each plate. The tetrazolium/formazan reaction was allowed to proceed for 4 h at 37° C., and then 100 μl of the solubilization buffer (10% sodium dodecyl sulfate in 0.1% HCl) were added to all wells and mixed thoroughly to dissolve the dark blue formazan crystals. […]

[2] = tested on: Ntera-2 testicular cancer cells; experiment: MTT cytotoxicity assay of vanadocenes, NTERA-2 cells; settings: 24 h, 1.9-250 μM
Method: as §1, §2

[3] = tested on: Tera-2 testicular cancer cells; experiment: Flow cytometric TUNEL apoptosis assay, TERA-2 cells; settings: 24 h, TUNEL-positive nuclei
Method: (§3) A flow cytometric two-color terminal […] transferase (TdT)-mediated digoxigenin-uridine triphosphate (dUTP) nick-end labeling assay (TUNEL) was employed to detect apoptotic nuclei. Gavrieli, Y., Sherman, Y., Ben-Sasson, S. A. Identification of programmed cell death in situ via specific labeling of nuclear DNA fragmentation. J. Cell Biol., 119: 493–501, 1992. Exponentially growing cells (10^6/ml) were incubated in DMSO alone (0.1%) or treated with 100 μM each of the 16 vanadocenes (VDB, VDC, VMDC, VDI, VDA, VDCN, VDOCN, VDSCN, VDSeCN, VDT, VDCO, VDFe, VD(acac), VDH, VD(dpy), and VD(dtc) in 0.1% DMSO for 24 h. Cells were washed in PBS, fixed in 4% paraformaldehyde in PBS for 15 min on ice. Following two washings in PBS, they were permeabilized with 0.1% Triton X-100 in 0.1% sodium citrate for 2 min on ice, and washed twice in PBS. Labeling of exposed 3′-hydroxyl (3′-OH) ends of fragmented nuclear DNA was performed using TdT and fluorescein isothiocyanate (FITC)-conjugated dUTP according to the manufacturer's recommendations (Boehringer Mannheim, Indianapolis, Ind.). Cells were counterstained with 5 μg/ml PI. Control samples included: (i) untreated cells; (ii) cells incubated with the reaction mixture without the TdT enzyme. Cells were analyzed with a FACS Calibur flow cytometer (Becton Dickinson, Mountain View, Calif.). Relative DNA content (PI) was detected with band-pass filter 585/42, and dUTP incorporation (FITC) was detected with band-pass filter 530/30. Fluorescence was compensated for in the acquisition software using single-label control samples. Data were acquired in listmode, gated to 10,000 events per sample, and analyzed with the use of CELLQuest software program (Becton Dickinson). […] Vanadocene-induced apoptosis is shown by an increase in the number of cells staining with FITC-dUTP. The M1 and M2 gates were used to demarcate non-apoptotic and apoptotic PI-counterstained cell populations, respectively. TUNEL assays were performed using two testicular cell lines Tera-2 and Ntera-2 following exposure to each of the 16 vanadocenes. In other experiments, MC540 binding (as an early marker of apoptosis) and PI permeability (as a marker of advanced stage apoptosis) were simultaneously measured in human cancer cells 24 hours after exposure to vanadocenes, as previously described. Uckun, F. M., Narla, R. K., Jun, X., Zeren, T., Venkatachalam, T., Waddick, K. G., Rostostev, A., Myers, D. E. Cytotoxic activity of EGF-genstein against breast cancer cells. Clin. Cancer Res. 4:901–912, 1998. Vassilev, A., Ozer, Z., Navara, C., Mahajan, S., and Uckun, F. M. Bruton's tyrosine kinase as an inhibitor of the Fas/CD95 death-inducing signaling complex. J. Biol. Chem. 274:1646–56, 1999. Whole cells were analyzed using a FACStar Plus flow cytometer (Becton Dickinson, San Jose, Calif.). All analyses were done using 488 nm excitation from an argon laser. MC540 and PI emissions were split with a 600 nm short pass dichroic mirror and a 575 nm band pass filter was placed in front of one photomultiplier tube to measure MC540 emission and a 635 nm band pass filter was used for PI emission.

[4] = tested on: Ntera-2 testicular cancer cells; experiment: Flow cytometric TUNEL apoptosis assay, NTERA-2 cells; settings: 24 h, TUNEL-positive nuclei
Method: as §3

U373 glioblastoma cells = experiment: MTT cytotoxicity assay of vanadocenes, U373 cells; settings: 24 h
Method: as §1, §2

Compound	IC50 [1]	IC50 [2]	% Apoptosis at 100 μM TERA-2 [3]	% Apoptosis at 100 μM NTERA-2 [4]	IC50 (U373 glioblastoma cells)
O=S(=O)(O)C(F)(F)F.O=S(=O)(O)C(F)(F)F.[V+2].c1cc[cH-]c1.c1cc[cH-]c1 [VDT, VCp2(O3SCF3)2]	76 µM	137 µM	71 (71, 71) %	55 ± 26 (N = 4) %	–
Cc1c(C)c(C)[c-](C)c1C.Cc1c(C)c(C)[c-](C)c1C.[Cl-].[Cl-].[V+2] [VPMDC, V(Me5Cp)2Cl2]	127 µM	44 µM	35 (35, 36) %	34 (33, 35) %	172 µM
CC#N.[Cl-].[Cl-].[Cl-].[Cl-].[Cl-].[Fe+3].[V+4].c1cc[cH-]c1.c1cc[cH-]c1 [VDFe, VCp2Cl (CH3CN)(FeCl4)]	100 µM	113 µM	85 (84, 87) %	87 (81, 94) %	–
VCp2(NCO)2 [VDOCN]	31 µM	63 µM	85 (80, 90) %	95 (94, 96) %	–
HfCp2Cl2 [HDC]	> 250 µM	> 250 µM	–	–	> 250 µM
V(Me5Cp)OCl [VPMOC]	> 250 µM	77 µM	5 (5, 6) %	6 (6, 7) %	–
VCp2(dtc) [VD(dtc)]	60 µM	83 µM	83 (82, 84) %	67 ± 13 (N = 3) %	7 µM
CC(=O)[CH-]C(C)=O.O=S(=O)([O-])C(F)(F)F.[V+4].c1cc[cH-]c1.c1cc[cH-]c1 [VD(acac), VCp2(acac)(O3SCF3)]	64 µM	75 µM	72 ± 17%	48 ± 13 (N = 3) %	–
VCp2(NCS)2.0.5H2O [VDSCN]	23 µM	17 µM	64 (58, 69) %	53 (46, 60) %	19 µM
[O-]c1ccccc1[O-].[V+2].c1cc[cH-]c1.c1cc[cH-]c1 [VD(cat), Cp2V(cat)]	79 µM	93 µM	–	12 (9, 15) %	–
ZrCp2Cl2 [ZDC]	> 250 µM	> 250 µM	–	–	> 250 µM
VCp2(PH) [VDPH]	> 250 µM	61 µM	88 ± 3 (N = 3) %	90 ± 3 (N = 4) %	–
MoCp2Cl2 [MDC]	> 250 µM	> 250 µM	–	–	> 250 µM
[Cl-].[N-]=C=O.[V+2].c1cc[cH-]c1.c1cc[cH-]c1 [VDCO, VCp2(NCO)Cl]	50 µM	90 µM	73 (67, 78) %	98 (97, 99) %	–
TiCp2Cl2 [TDC]	> 250 µM	> 250 µM	–	–	> 250 µM
VCp2(bpy)(O3SCF3)2 [VD(bpy)]	37 µM	53 µM	–	78 (77, 78) %	–
V(MeCp)2Cl2.0.5 H2O [VMDC]	123 µM	86 µM	45 (27, 61) %	13 (13, 14) %	61 µM
VCp2(H) [VDH]	118 µM	125 µM	84 ± 2 (N = 3) %	20 ± 5 (N = 3) %	> 250 µM
